Measured values: PubChem BioAssay (NCI)
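Values below derive from 48-hour exposures of cells grown in 96-well plates, with endpoints linearly interpolated between the two concentrations bracketing the appropriate inhibition level. Definition used: TGI = concentration required for complete inhibition of growth.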

Assays:
Test in all cases: growth of human tumour cells (NCI), 48 h
CAKI-1 renal = system: CAKI-1 renal
HT29 colon = system: HT29 colon
MDA-MB-231 breast = system: MDA-MB-231 breast
RPMI-8226 leukemia = system: RPMI-8226 leukemia
HOP-92 NSCLC = system: HOP-92 NSCLC
NCI-H226 lung = system: NCI-H226 lung
SF-295 CNS = system: SF-295 CNS
MALME-3M melanoma = system: MALME-3M melanoma
UO-31 renal = system: UO-31 renal
U251 CNS = system: U251 CNS
LOX IMVI melanoma = system: LOX IMVI melanoma
BT-549 breast = system: BT-549 breast
SW-620 colon = system: SW-620 colon
A498 renal = system: A498 renal
HOP-62 NSCLC = system: HOP-62 NSCLC
NCI/ADR-RES ovarian = system: NCI/ADR-RES ovarian
A549 NSCLC = system: A549 NSCLC
SN12C renal = system: SN12C renal
SF-539 CNS = system: SF-539 CNS
TK-10 renal = system: TK-10 renal
SK-MEL-2 melanoma = system: SK-MEL-2 melanoma
COLO 205 colon = system: COLO 205 colon
SK-MEL-5 melanoma = system: SK-MEL-5 melanoma
HL-60(TB) leukemia = system: HL-60(TB) leukemia
SK-OV-3 ovarian = system: SK-OV-3 ovarian
ACHN renal = system: ACHN renal
KM12 colon = system: KM12 colon
SK-MEL-28 melanoma = system: SK-MEL-28 melanoma
DU-145 prostate = system: DU-145 prostate
NCI-H23 lung = system: NCI-H23 lung
MOLT-4 leukemia = system: MOLT-4 leukemia
HCT-15 colon = system: HCT-15 colon
MDA-MB-435 = system: MDA-MB-435
HS 578T breast = system: HS 578T breast
HCT-116 colon = system: HCT-116 colon
SNB-75 CNS = system: SNB-75 CNS
OVCAR-4 ovarian = system: OVCAR-4 ovarian
K-562 leukemia = system: K-562 leukemia
OVCAR-5 ovarian = system: OVCAR-5 ovarian
SNB-19 CNS = system: SNB-19 CNS
UACC-257 melanoma = system: UACC-257 melanoma
NCI-H460 lung = system: NCI-H460 lung
OVCAR-8 ovarian = system: OVCAR-8 ovarian
UACC-62 melanoma = system: UACC-62 melanoma
CCRF-CEM leukemia = system: CCRF-CEM leukemia
MDA-N = system: MDA-N
OVCAR-3 ovarian = system: OVCAR-3 ovarian
RXF 393 renal = system: RXF 393 renal
EKVX NSCLC = system: EKVX NSCLC
786-0 renal = system: 786-0 renal
M14 melanoma = system: M14 melanoma
MCF7 breast = system: MCF7 breast
PC-3 prostate = system: PC-3 prostate
HCC-2998 colon = system: HCC-2998 colon
SF-268 CNS = system: SF-268 CNS
IGROV1 ovarian = system: IGROV1 ovarian
NCI-H522 lung = system: NCI-H522 lung
SR leukemia = system: SR leukemia

Work on `CC(=O)Oc1c(N2CCCCC2)c(C(=O)c2ccccc2)c(O)c2ccn(N(C)C)c12` yielded a TGI (CAKI-1 renal) of 33.8 µM, a TGI (HT29 colon) of 29.3 µM and a TGI (MDA-MB-231 breast) of 30.6 µM. For the same compound, the TGI (RPMI-8226 leukemia) was 44.8 µM, the TGI (HOP-92 NSCLC) was 88.6 µM and the TGI (NCI-H226 lung) was 32.4 µM. For the same compound, the TGI (SF-295 CNS) was 42.4 µM, the TGI (MALME-3M melanoma) was 31.8 µM and the TGI (UO-31 renal) was 35.4 µM. The TGI (U251 CNS) was 33.5 µM, the TGI (LOX IMVI melanoma) was 33.1 µM and the TGI (BT-549 breast) was 42.7 µM. For the same compound, the TGI (SW-620 colon) was 35.1 µM, the TGI (A498 renal) was 29.1 µM and the TGI (HOP-62 NSCLC) was 93.2 µM. It also gave a TGI (NCI/ADR-RES ovarian) of 42.3 µM, a TGI (A549 NSCLC) of over 100 µM and a TGI (SN12C renal) of 33.7 µM. The TGI (SF-539 CNS) was 35.9 µM, the TGI (TK-10 renal) was 36.8 µM and the TGI (SK-MEL-2 melanoma) was 54.6 µM. For the same compound, the TGI (COLO 205 colon) was 33.3 µM, the TGI (SK-MEL-5 melanoma) was 29.7 µM and the TGI (HL-60(TB) leukemia) was 29.5 µM. For the same compound, the TGI (SK-OV-3 ovarian) was 65.4 µM, the TGI (ACHN renal) was 40.2 µM and the TGI (KM12 colon) was 27.1 µM. The TGI (SK-MEL-28 melanoma) was 34.8 µM, the TGI (DU-145 prostate) was 56.6 µM and the TGI (NCI-H23 lung) was 38.5 µM. It also gave a TGI (MOLT-4 leukemia) of 49.8 µM, a TGI (HCT-15 colon) of 35.9 µM and a TGI (MDA-MB-435) of 38.1 µM. For the same compound, the TGI (HS 578T breast) was 66.8 µM, the TGI (HCT-116 colon) was 22.5 µM and the TGI (SNB-75 CNS) was 32.5 µM. The TGI (OVCAR-4 ovarian) was 58.2 µM, the TGI (K-562 leukemia) was over 100 µM and the TGI (OVCAR-5 ovarian) was over 100 µM. It also gave a TGI (SNB-19 CNS) of 64.3 µM, a TGI (UACC-257 melanoma) of 31.2 µM and a TGI (NCI-H460 lung) of 51.2 µM. For the same compound, the TGI (OVCAR-8 ovarian) was 58.1 µM, the TGI (UACC-62 melanoma) was 30.3 µM and the TGI (CCRF-CEM leukemia) was 76.1 µM. It also gave a TGI (MDA-N) of 35.3 µM, a TGI (OVCAR-3 ovarian) of 74.7 µM and a TGI (RXF 393 renal) of 48.4 µM. It also gave a TGI (EKVX NSCLC) of 31.2 µM, a TGI (786-0 renal) of 33.8 µM and a TGI (M14 melanoma) of 53.7 µM. For the same compound, the TGI (MCF7 breast) was 30.6 µM, the TGI (PC-3 prostate) was 33.7 µM and the TGI (HCC-2998 colon) was 37.2 µM. It also gave a TGI (SF-268 CNS) of 57.5 µM.
`Cc1n[nH]c(=O)n1/N=C\c1ccccc1` was tested, and the TGI (CAKI-1 renal) was over 100 µM, the TGI (HT29 colon) was over 100 µM and the TGI (MDA-MB-231 breast) was over 100 µM. For the same compound, the TGI (RPMI-8226 leukemia) was over 100 µM, the TGI (NCI-H226 lung) was over 100 µM and the TGI (SF-295 CNS) was over 100 µM. For the same compound, the TGI (MALME-3M melanoma) was over 100 µM, the TGI (UO-31 renal) was over 100 µM and the TGI (U251 CNS) was over 100 µM. It also gave a TGI (LOX IMVI melanoma) of over 100 µM, a TGI (BT-549 breast) of over 100 µM and a TGI (SW-620 colon) of over 100 µM. It also gave a TGI (A498 renal) of over 100 µM, a TGI (HOP-62 NSCLC) of over 100 µM and a TGI (NCI/ADR-RES ovarian) of over 100 µM. For the same compound, the TGI (A549 NSCLC) was over 100 µM, the TGI (SN12C renal) was over 100 µM and the TGI (SF-539 CNS) was over 100 µM. It also gave a TGI (TK-10 renal) of over 100 µM, a TGI (SK-MEL-2 melanoma) of over 100 µM and a TGI (COLO 205 colon) of over 100 µM. It also gave a TGI (SK-MEL-5 melanoma) of over 100 µM, a TGI (HL-60(TB) leukemia) of over 100 µM and a TGI (IGROV1 ovarian) of over 100 µM. The TGI (ACHN renal) was over 100 µM, the TGI (KM12 colon) was over 100 µM and the TGI (SK-MEL-28 melanoma) was over 100 µM. For the same compound, the TGI (DU-145 prostate) was over 100 µM, the TGI (NCI-H23 lung) was over 100 µM and the TGI (MOLT-4 leukemia) was over 100 µM. For the same compound, the TGI (HCT-15 colon) was over 100 µM, the TGI (MDA-MB-435) was over 100 µM and the TGI (HS 578T breast) was over 100 µM. The TGI (HCT-116 colon) was over 100 µM, the TGI (OVCAR-4 ovarian) was over 100 µM and the TGI (K-562 leukemia) was over 100 µM. The TGI (OVCAR-5 ovarian) was over 100 µM, the TGI (UACC-257 melanoma) was over 100 µM and the TGI (NCI-H522 lung) was over 100 µM. For the same compound, the TGI (NCI-H460 lung) was over 100 µM, the TGI (OVCAR-8 ovarian) was over 100 µM and the TGI (UACC-62 melanoma) was over 100 µM. The TGI (CCRF-CEM leukemia) was over 100 µM, the TGI (MDA-N) was over 100 µM and the TGI (OVCAR-3 ovarian) was over 100 µM. For the same compound, the TGI (RXF 393 renal) was 50.9 µM, the TGI (EKVX NSCLC) was over 100 µM and the TGI (786-0 renal) was over 100 µM. The TGI (MCF7 breast) was over 100 µM, the TGI (PC-3 prostate) was over 100 µM and the TGI (SR leukemia) was over 100 µM. It also gave a TGI (HCC-2998 colon) of over 100 µM and a TGI (SF-268 CNS) of over 100 µM.
